{
  "source": "ChEMBL document CHEMBL1201862",
  "about": "“PubChem BioAssay data set” (2004)",
  "test_in_all_cases": "inhibition of tumour cell growth, NCI panel, 48 h",
  "key": {"[1]": {"test_system": "HL-60"}, "[2]": {"test_system": "OVCAR-8"}, "[3]": {"test_system": "OVCAR-3"}, "[4]": {"test_system": "HOP-92"}, "[5]": {"test_system": "M14"}, "[6]": {"test_system": "K562"}, "[7]": {"test_system": "SF-295"}, "[8]": {"test_system": "HCT-15"}, "[9]": {"test_system": "SF-268"}, "[10]": {"test_system": "NCI-H522"}, "[11]": {"test_system": "NCI-H460"}, "[12]": {"test_system": "IGROV-1"}, "[13]": {"test_system": "RPMI-8226"}, "[14]": {"test_system": "TK-10"}, "[15]": {"test_system": "UACC-62"}, "[16]": {"test_system": "SK-MEL-28"}, "[17]": {"test_system": "RXF 393"}, "[18]": {"test_system": "Hs-578T"}, "[19]": {"test_system": "SF-539"}, "[20]": {"test_system": "SK-MEL-5"}, "[21]": {"test_system": "NCI-H23"}, "[22]": {"test_system": "U-251"}, "[23]": {"test_system": "SNB-75"}, "[24]": {"test_system": "SW-620"}, "[25]": {"test_system": "SN12C"}, "[26]": {"test_system": "NCI/ADR-RES"}, "[27]": {"test_system": "CCRF-CEM"}, "[28]": {"test_system": "Malme-3M"}, "[29]": {"test_system": "DU-145"}, "[30]": {"test_system": "OVCAR-4"}, "[31]": {"test_system": "A549"}, "[32]": {"test_system": "HCC 2998"}, "[33]": {"test_system": "NCI-H226"}, "[34]": {"test_system": "HOP-62"}, "[35]": {"test_system": "SNB-19"}, "[36]": {"test_system": "COLO 205"}, "[37]": {"test_system": "MDA-MB-435"}, "[38]": {"test_system": "HCT-116"}, "[39]": {"test_system": "ACHN"}, "[40]": {"test_system": "KM12"}, "[41]": {"test_system": "A498"}, "[42]": {"test_system": "HT-29"}, "[43]": {"test_system": "MDA-MB-231"}, "[44]": {"test_system": "LOX IMVI"}, "[45]": {"test_system": "SR"}, "[46]": {"test_system": "UO-31"}, "[47]": {"test_system": "MOLT-4"}, "[48]": {"test_system": "MDA-N"}, "[49]": {"test_system": "SK-MEL-2"}, "[50]": {"test_system": "CAKI-1"}, "[51]": {"test_system": "786-0"}, "[52]": {"test_system": "T47D"}, "[53]": {"test_system": "UACC-257"}, "[54]": {"test_system": "OVCAR-5"}, "[55]": {"test_system": "PC-3"}, "[56]": {"test_system": "SK-OV-3"}, "[57]": {"test_system": "EKVX"}},
  "note": "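Values below derive from 48-hour exposures of cells grown in 96-well plates, with endpoints linearly interpolated between the two concentrations bracketing the appropriate inhibition level. The concentration for 50% growth inhibition is given as GI50.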 Activity calls are given as the source filed them. No stated cut-off is given here; in the data, active = GI50 up to about 1.1 µM and inactive = higher.",
  "data": [
    {"smiles": "N#Cc1c(N2CCCC2)ncn(-c2ccccc2)c1=O", "values": [
      {"measurement": "GI50", "setting": "[1]", "result": "> 100 µM (inactive)"},
      {"measurement": "GI50", "setting": "[2]", "result": "> 100 µM (inactive)"},
      {"measurement": "GI50", "setting": "[3]", "result": "> 100 µM (inactive)"},
      {"measurement": "GI50", "setting": "[4]", "result": "> 100 µM (inactive)"},
      {"measurement": "GI50", "setting": "[5]", "result": "> 100 µM (inactive)"},
      {"measurement": "GI50", "setting": "[6]", "result": "> 100 µM (inactive)"},
      {"measurement": "GI50", "setting": "[7]", "result": "> 100 µM (inactive)"},
      {"measurement": "GI50", "setting": "[8]", "result": "> 100", "unit": "µM"},
      {"measurement": "GI50", "setting": "[9]", "result": "> 100 µM (inactive)"},
      {"measurement": "GI50", "setting": "[10]", "result": "> 100 µM (inactive)"},
      {"measurement": "GI50", "setting": "[11]", "result": "> 100 µM (inactive)"},
      {"measurement": "GI50", "setting": "[12]", "result": "> 100 µM (inactive)"},
      {"measurement": "GI50", "setting": "[13]", "result": "> 100 µM (inactive)"},
      {"measurement": "GI50", "setting": "[14]", "result": "> 100 µM (inactive)"},
      {"measurement": "GI50", "setting": "[15]", "result": "> 100 µM (inactive)"},
      {"measurement": "GI50", "setting": "[16]", "result": "> 100 µM (inactive)"},
      {"measurement": "GI50", "setting": "[17]", "result": "> 100 µM (inactive)"},
      {"measurement": "GI50", "setting": "[18]", "result": "> 100 µM (inactive)"},
      {"measurement": "GI50", "setting": "[19]", "result": "> 100 µM (inactive)"},
      {"measurement": "GI50", "setting": "[20]", "result": "> 100 µM (inactive)"},
      {"measurement": "GI50", "setting": "[21]", "result": "> 100 µM (inactive)"},
      {"measurement": "GI50", "setting": "[22]", "result": "> 100 µM (inactive)"},
      {"measurement": "GI50", "setting": "[23]", "result": "> 100 µM (inactive)"},
      {"measurement": "GI50", "setting": "[24]", "result": "> 100 µM (inactive)"},
      {"measurement": "GI50", "setting": "[25]", "result": "> 100 µM (inactive)"},
      {"measurement": "GI50", "setting": "[26]", "result": "> 100 µM (inactive)"},
      {"measurement": "GI50", "setting": "[27]", "result": "> 100 µM (inactive)"},
      {"measurement": "GI50", "setting": "[28]", "result": "> 100 µM (inactive)"},
      {"measurement": "GI50", "setting": "[29]", "result": "> 100 µM (inactive)"},
      {"measurement": "GI50", "setting": "[30]", "result": "> 100 µM (inactive)"},
      {"measurement": "GI50", "setting": "[31]", "result": "> 100 µM (inactive)"},
      {"measurement": "GI50", "setting": "[32]", "result": "> 100 µM (inactive)"},
      {"measurement": "GI50", "setting": "[33]", "result": "> 100 µM (inactive)"},
      {"measurement": "GI50", "setting": "[34]", "result": "> 100 µM (inactive)"},
      {"measurement": "GI50", "setting": "[35]", "result": "> 100 µM (inactive)"},
      {"measurement": "GI50", "setting": "[36]", "result": "> 100 µM (inactive)"},
      {"measurement": "GI50", "setting": "[37]", "result": "> 100 µM (inactive)"},
      {"measurement": "GI50", "setting": "[38]", "result": "> 100 µM (inactive)"},
      {"measurement": "GI50", "setting": "[39]", "result": "> 100 µM (inactive)"},
      {"measurement": "GI50", "setting": "[40]", "result": "> 100 µM (inactive)"},
      {"measurement": "GI50", "setting": "[41]", "result": "> 100 µM (inactive)"},
      {"measurement": "GI50", "setting": "[42]", "result": "> 100 µM (inactive)"},
      {"measurement": "GI50", "setting": "[43]", "result": "> 100 µM (inactive)"},
      {"measurement": "GI50", "setting": "[44]", "result": "> 100 µM (inactive)"},
      {"measurement": "GI50", "setting": "[45]", "result": "> 100 µM (inactive)"},
      {"measurement": "GI50", "setting": "[46]", "result": "> 100 µM (inactive)"},
      {"measurement": "GI50", "setting": "[47]", "result": "> 100 µM (inactive)"},
      {"measurement": "GI50", "setting": "[48]", "result": "> 100 µM (inactive)"},
      {"measurement": "GI50", "setting": "[49]", "result": "> 100 µM (inactive)"},
      {"measurement": "GI50", "setting": "[50]", "result": "> 100 µM (inactive)"},
      {"measurement": "GI50", "setting": "[51]", "result": "> 100 µM (inactive)"},
      {"measurement": "GI50", "setting": "[52]", "result": "> 100 µM (inactive)"},
      {"measurement": "GI50", "setting": "[53]", "result": "> 100 µM (inactive)"},
      {"measurement": "GI50", "setting": "[54]", "result": "> 100 µM (inactive)"},
      {"measurement": "GI50", "setting": "[55]", "result": "> 100 µM (inactive)"},
      {"measurement": "GI50", "setting": "[56]", "result": "> 100 µM (inactive)"},
      {"measurement": "GI50", "setting": "[57]", "result": "> 100 µM (inactive)"}
    ]}
  ]
}
